Measured values as given in patent US12522596B2, “Compounds as GLP-1R agonists” (Terns Pharmaceuticals, Inc., priority 2021, dated 2026).
Blank lines part the entries; values can stand above or below the compound they belong to.

What was measured:
[1] = target: T1, human GLP-1R receptor (Homo sapiens, UniProt P43220); test: GLP-1R low expression cell assay (cAMP TR-FRET, CHO-K1_hGLP-1Rlow_clone10); format: cell-based; conditions: CHO-K1_hGLP-1Rlow_clone10 cells
T1 construct: expressed in transfected cells
T1 sequence (P43220 24-463): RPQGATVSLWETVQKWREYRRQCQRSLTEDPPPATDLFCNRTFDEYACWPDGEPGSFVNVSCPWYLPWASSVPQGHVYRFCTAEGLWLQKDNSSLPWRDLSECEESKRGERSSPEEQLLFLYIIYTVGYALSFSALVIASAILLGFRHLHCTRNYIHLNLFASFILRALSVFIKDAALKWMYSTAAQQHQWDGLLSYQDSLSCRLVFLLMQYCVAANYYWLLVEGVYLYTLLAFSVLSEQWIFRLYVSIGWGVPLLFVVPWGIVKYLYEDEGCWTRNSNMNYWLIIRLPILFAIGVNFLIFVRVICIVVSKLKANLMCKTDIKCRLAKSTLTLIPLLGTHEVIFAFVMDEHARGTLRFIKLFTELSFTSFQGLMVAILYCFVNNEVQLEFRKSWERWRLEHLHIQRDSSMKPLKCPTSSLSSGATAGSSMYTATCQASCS
Experimental: Stable cell lines expressing high and low GLP-1R surface expression were generated in CHO-K1 cells transfected (Fugene 6) with a puromycin selectable DNA plasmid encoding human GLP-1R receptor (accession number: NM_002062.5) under control of an EF1A promoter. Transfected cells were seeded into 24-well plates (9,000 cells/well) containing complete medium and incubated in a humidified incubator at 37° C. with 5% carbon dioxide. After overnight incubation, medium was replaced with complete medium supplemented with puromycin (6 μg/mL) and refreshed every 2-3 days to select for stably transfected cells. Individual pools of selected cells were expanded prior to analysis for responsiveness to GLP-1 control peptide using a TR-FRET assay to detect cAMP (LANCE Ultra CAMP Assay, Perkin Elmer). Briefly, cells were collected in Versene solution, plated in 384-well plates (1,000 cells/well) and combined with serially diluted GLP-1R control peptide (10 nL) using an acoustic dispenser (ECHO). Plates were incubated for 30 minutes at 25° C. prior to the addition of EU-CAMP tracer (5 μL) and Ulight-anti-cAMP (5 μL) reagents to each well, followed by 15 minutes incubation at 25° C. TR-FRET signal was detected using an En Vision Multimode Plate Reader (excitation=320 nm; emission=615 and 655 nm). Dose-response curves were used to generate EC50 values as a measure of responsiveness to the GLP-1R control peptide. Selected cell lines were monitored for responsiveness over multiple passages to ensure stability. […] Briefly, GLP-1R expression was analyzed by flow cytometry using a fluorescein-labeled Exendin-4 peptide fluorescent probe (FLEX). Cells were harvested in Versene solution and washed 3-times with PBS+0.5% BSA before incubation with FLEX reagent (10 μM) for 2 hours at room temperature. After incubation, cells were washed 3-times in PBS+0.5% BSA before final resuspension in PBS prior to analysis by flow cytometry to measure FLEX mean fluorescence intensity (MFI) as a measure of GLP-1R expression on the cell surface.
For compound testing in the CHO-K1_hGLP-1Rlow_clone10 cell line, cells were seeded in 384-well plates (1,000 cells/well). Test compounds were serially diluted in DMSO (10-point, 3-fold dilution), added to wells using an ECHO dispenser (10 nL/well) and plates were centrifuged for 1 min and agitated for 2 min at room temperature prior to 30-minute incubation at 25° C. After incubation, Eu-CAMP (5 μL) and Ulight-anti-cAMP (5 μL) reagents were added to each well, followed by centrifugation for 1 minute, agitation for 2 minutes at room temperature, and final incubation of the plates at 25° C. for 15 minutes. Plates were read using an EnVision microplate reader (excitation=320 nm; emission=615 and 655 nm). Dose-response curves were generated from duplicate wells based on percent activation calculated relative to a control GLP-1 peptide agonist that was run in parallel. EC50 values were determined by fitting percent activation as a function of compound concentration using the Hill equation (XLfit).
Stable cell lines expressing high and low GLP-1R surface expression were generated in CHO-K1 cells transfected (Fugene 6) with a puromycin selectable DNA plasmid encoding human GLP-1R receptor (accession number: NM_002062.5) under control of an EF1A promoter. Transfected cells were seeded into 24-well plates (9,000 cells/well) containing complete medium and incubated in a humidified incubator at 37° C. with 5% carbon dioxide. After overnight incubation, medium was replaced with complete medium supplemented with puromycin (6 μg/mL) and refreshed every 2-3 days to select for stably transfected cells. Individual pools of selected cells were expanded prior to analysis for responsiveness to GLP-1 control peptide using a TR-FRET assay to detect cAMP (LANCE Ultra CAMP Assay, Perkin Elmer).

[2] = Rat pharmacokinetics, oral dosing; format: in vivo, Sprague-Dawley rats; conditions: for AUC(0-t) / Cmax / half-life: male, Sprague-Dawley, rat plasma
Experimental: Oral dosing: Compounds were formulated at 0.3 mg/mL or 0.6 mg/mL in a solution comprising 5% polyethylene glycol 400 and 95% (12% (w/v) sulfobutyl-β-cyclodextrin in water) (v/v). Formulated compounds were administered to male, 7-11 week old Sprague-Dawley rats by oral gavage at a dose of 3 mg/kg.
Sample collection: Blood collections of about 0.2 mL per time point were performed from jugular vein or other suitable site of each animal, into pre-chilled commercial EDTA-K2 tubes and placed on wet ice until centrifugation. Blood samples were processed for plasma by centrifugation at approximately 4° C., 3,200 g for 10 min. Plasma was collected and transferred into pre-labeled 96 well plate or polypropylene tubes, quick frozen over dry ice and kept at −60° C. or lower until LC-MS/MS analysis.
Data analysis: Plasma concentration versus time data was plotted in graph and analyzed by non-compartmental approaches using the Phoenix WinNonlin 6.3 software program. Related PK parameters were calculated according to dosing route, e.g., CL, Vdss and C0 for intravenous administration, Cmax, Tmax or % F for extravascular administration, and T1/2, AUC(0-t), AUC(0-inf), MRT(0-t), MRT(0-inf) for all routes.

[3] = Metabolic stability in rat hepatocytes; format: in vitro ADME; conditions: cryopreserved hepatocytes, 1 μM
Experimental: (§1) Test compounds were incubated in rat and human hepatocytes and stability was assessed from the substrate […] approach. Test compounds were dissolved in dimethyl sulfoxide (DMSO) to create a 10 mM Stock, and then further diluted to create a 1000× Working Stock of 1 mM with DMSO in 96-well plates for test compounds and the positive control (midazolam). Vials containing cryopreserved hepatocytes were removed from the liquid nitrogen tank and immediately immersed in a 37° C. water bath. The vials were shaken gently until the contents had thawed and were then immediately emptied into 48 mL of pre-warmed HT Medium in a 50 mL conical tube. Cells remaining in the vial were resuspended with 1.0 mL of pre-warmed HT Medium and added to the conical tube. The tube was capped and then gently inverted several times to resuspend the hepatocytes. The cell suspension was centrifuged at 50×g at room temperature for 5 minutes and the supernatant discarded. The cell pellet was loosened by gently swirling the centrifuge tube and was re-suspended in 4 mL of warm Dulbecco's Modified Eagle medium (DMEM). Cell density was determined by a cell counter by Nexcelom, and DMEM medium was added to obtain a target density of 1×10^6 cells/mL. The assay was carried out in 96-well microtiter plates. Test Compounds were incubated at 1 μM with 1×10^6 cells/mL hepatocytes in DMEM for 0, 30, 60, 120 and 240 minutes. The incubation was carried out with gentle shaking at 37° C. under a humid atmosphere of 95% air/5% CO2. The volume of the incubation mixture was 37 μL with a final 0.1% DMSO. At each of the time points, the incubation was stopped by adding 150 μL quenching solution (100% acetonitrile, 0.1% formic acid containing bucetin as an internal standard for positive ESI mode). Subsequently, the mixtures were vortexed for 20 min and centrifuged at 4,000 RPM at 10° C. The supernatant (80 μL) was transferred to a clean 96-well plate and analyzed by LC-MS/MS. Midazolam at 1 μM with a final 0.1% DMSO was included as a positive control to verify assay performance. The percent parent remaining, intrinsic and predicted hepatic clearance and t1/2 were calculated. All samples were analyzed by LC-MS/MS using an AB Sciex API 4000 instrument, coupled to a Shimadzu LC-20AD LC Pump system. Separation was achieved using a Waters Atlantis T3 dC18 reverse phase HPLC column (20 mm×2.1 mm) at a flow rate of 0.5 mL/min. The mobile phase consisted of 0.1% formic acid in water (solvent A) and 0.1% formic acid in 100% acetonitrile (solvent B). Elution conditions are detailed below.
(§2) The ion optics of each test compound were optimized for their declustering potential (DP), […] (CE), collision-cell exit potential (CXP) and used in a selected ion monitoring experiment in the positive ion mode. The peak area ratio of each test compound to internal standard was then evaluated for stability. The extent of metabolism was calculated based on the disappearance of the test compound, compared to its initial concentration. The initial rates of clearance of the test compound were calculated using the linear regression plot of semi-log % remaining of the compound versus time. The elimination rate constant (k) of the linear regression plot was then used to determine t1/2 and the intrinsic clearance (CLint) using the following formula, where Chepatocyte (million cells/mL) is the cell density of the incubation:
(§3) The predicted hepatic clearance (CLhep) was calculated using the well stirred method with the following formula with CLint(in vivo) normalized based on liver weight: […]
(§4) The relevant physiological parameters of liver weight, blood flow, and hepatocellularity for various species are listed below: […]

[4] = test system: rat hepatocytes; test: Metabolic stability in rat hepatocytes; format: in vitro ADME
Experimental: as §1, §2, §3, §4

[5] = Metabolic stability in human hepatocytes; format: in vitro ADME; conditions: cryopreserved hepatocytes; human hepatocytes, 1 μM
Experimental: as §1, §2, §3, §4

[6] = rat, plasma, po, 3 mg/kg, 3 mg/kg PO (0.3 mg/mL)

EC50 [1]: 0.0501 µM
SMILES: N#Cc1ccc(COc2cccc(C3CCN(Cc4nc5ccc(C(=O)O)cc5n4Cc4nccs4)CC3)n2)c(F)c1 [Compound 1]

EC50 [1]: 0.0442 µM | AUC(0-t) [2, 6]: 0.116 ± 0.0232 µg·h/mL | Cmax [2, 6]: 0.0798 ± 0.0244 µg/mL | half-life [2, 6]: 1.1 ± 0.29 h
SMILES: N#Cc1cc(F)c2c(c1)CCN(c1cccc(C3CCN(Cc4nc5ccc(C(=O)O)cc5n4Cc4cncs4)CC3)n1)C2 [Compound 3]

EC50 [1]: 0.0054 µM
SMILES: N#Cc1cc(F)c2nc(COc3cccc(C4CCN(Cc5nc6ccc(C(=O)O)cc6n5Cc5cncs5)CC4)n3)sc2c1 [Compound 5]

EC50 [1]: 0.135 µM
SMILES: N#Cc1cc(F)c2nc(COc3cccc(C4CCN(Cc5nc6ccc(C(=O)O)cc6n5Cc5scnc5Br)CC4)n3)sc2c1 [Compound 6]

EC50 [1]: 0.0906 µM
SMILES: C=Cc1ncsc1Cn1c(CN2CCC(c3cccc(OCc4nc5c(F)cc(C#N)cc5s4)n3)CC2)nc2ccc(C(=O)O)cc21 [Compound 7]

EC50 [1]: 0.36 µM
SMILES: CCc1ncsc1Cn1c(CN2CCC(c3cccc(OCc4nc5c(F)cc(C#N)cc5s4)n3)CC2)nc2ccc(C(=O)O)cc21 [Compound 8]

EC50 [1]: 0.0166 µM
SMILES: N#Cc1cc(F)c2nc(COc3cccc(C4CCN(Cc5nc6ccc(C(=O)O)cc6n5Cc5ccns5)CC4)n3)sc2c1 [Compound 9]

EC50 [1]: 0.393 µM
SMILES: COc1ccsc1Cn1c(CN2CCC(c3cccc(OCc4nc5c(F)cc(C#N)cc5s4)n3)CC2)nc2ccc(C(=O)O)cc21 [Compound 10]

EC50 [1]: 0.292 µM
SMILES: Cc1scnc1Cn1c(CN2CCC(c3cccc(OCc4nc5c(F)cc(C#N)cc5s4)n3)CC2)nc2ccc(C(=O)O)cc21 [Compound 11]

SMILES: Cc1ncsc1Cn1c(CN2CCC3(c4cccc(OCc5ccc(C#N)cc5F)n4)CC3C2)nc2ccc(C(=O)O)cc21 (stereo not shown) [Compound 12]
EC50 [1]: 0.232 µM | CLint scaled at 1 μM [3]: 5.5 ± 0.106 L/h/kg | half-life at 1 μM [3]: 0.604 ± 0.0117 h | CLint relative to reference standard [4]: significantly increased | Half-life relative to reference [4]: significantly lower | CLint scaled at 1 μM [5]: 1.61 ± 0.048 L/h/kg | half-life at 1 μM [5]: 1.49 ± 0.0445 h

EC50 [1]: 0.724 µM | Half-life relative to reference [4]: significantly lower
SMILES: CCc1scnc1Cn1c(CN2CCC(c3cccc(OCc4nc5c(F)cc(C#N)cc5s4)n3)CC2)nc2ccc(C(=O)O)cc21 [Compound 13]

EC50 [1]: 0.0258 µM
SMILES: N#Cc1ccc(COc2cccc(C3CCN(Cc4nc5ccc(C(=O)O)cc5n4Cc4scnc4Cl)CC3)n2)c(F)c1 [Compound 15]

EC50 [1]: 0.0099 µM
SMILES: N#Cc1ccc(COc2ccnc([C@]34CCN(Cc5nc6ccc(C(=O)O)cc6n5Cc5cncs5)C[C@H]3C4)n2)c(F)c1 [Compound 18]

EC50 [1]: 0.161 µM
SMILES: N#Cc1ccc(COc2ccnc([C@@]34CCN(Cc5nc6ccc(C(=O)O)cc6n5Cc5cncs5)C[C@@H]3C4)n2)c(F)c1 [Compound 19]

EC50 [1]: 0.0066 µM
SMILES: O=C(O)c1ccc2nc(CN3CC[C@]4(c5nccc(OCc6ccc(Cl)cc6F)n5)C[C@@H]4C3)n(Cc3cncs3)c2c1 [Compound 21]

EC50 [1]: 0.0875 µM
SMILES: O=C(O)c1ccc2nc(CN3CC[C@@]4(c5nccc(OCc6ccc(Cl)cc6F)n5)C[C@H]4C3)n(Cc3cncs3)c2c1 [Compound 22]

EC50 [1]: 0.0033 µM | CLint scaled at 1 μM [3]: 3.48 ± 0.075 L/h/kg | half-life at 1 μM [3]: 0.957 ± 0.0205 h | CLint relative to reference standard [4]: significantly increased | Half-life relative to reference [4]: significantly lower | CLint scaled at 1 μM [5]: 2.54 ± 0.0954 L/h/kg | half-life at 1 μM [5]: 1.11 ± 0.0523 h
SMILES: O=C(O)c1ccc2nc(CN3CCC(c4nccc(OCc5ccc(Cl)cc5F)n4)CC3)n(Cc3cncs3)c2c1 [Compound 23]

EC50 [1]: 0.0151 µM
SMILES: O=C(O)c1ccc2nc(CN3CC[C@]4(c5cccc(OCc6ccc(Cl)cc6F)n5)C[C@@H]4C3)n(Cc3cncs3)c2c1 [Compound 24]

SMILES: O=C(O)c1ccc2nc(CN3CC[C@@]4(c5cccc(OCc6ccc(Cl)cc6F)n5)C[C@H]4C3)n(Cc3cncs3)c2c1 [Compound 25]
EC50 [1]: 0.0244 µM | Cmax ([2]; rat, plasma, po, 3 mg/kg, 3 mg/kg PO (0.6 mg/mL)): 0.412 ± 0.0983 µg/mL | AUC(0-t) ([2]; 3 mg/kg PO (0.6 mg/mL)): 0.558 ± 0.1 µg·h/mL | half-life ([2]; 3 mg/kg PO (0.6 mg/mL)): 1.52 ± 0.21 h | PK properties relative to Reference Compound A ([2]; rat, dosed orally): similarly improved PK properties

EC50 [1]: 0.004 µM | CLint scaled at 1 μM [3]: 1.45 ± 0.0498 L/h/kg | half-life at 1 μM [3]: 2.3 ± 0.0792 h | CLint relative to reference standard [4]: significantly lower | Half-life relative to reference [4]: significantly higher | CLint scaled at 1 μM [5]: 1.25 ± 0.0588 L/h/kg | half-life at 1 μM [5]: 1.92 ± 0.0905 h
SMILES: [2H]C([2H])(Oc1cccc(C2CCN(Cc3nc4ccc(C(=O)O)cc4n3Cc3cncs3)CC2)n1)c1ccc(Cl)cc1F [Compound 26]
